One experiment has as its target GCGR (Homo sapiens, UniProt P47871). The experiment is described as follows: I125-glucagon binding assay (competition, GCGR membrane fractions). On the set-up: expressed in transfected cells; host or cells: CHO-K1; inhibition: dose or concentration left out as unconfirmed. The conditions noted are these: for IC50: competition with I125-glucagon 0.0625 nM, membrane fractions from GCGR overexpressed CHO-K1 cells. As for the experimental part: I^125-Glucagon Binding Assay
The binding affinity of each compound was evaluated by a competition assay with I^125-glucagon. GCGR membrane fractions were obtained from GCGR overexpressed CHO-K1 cells as a stock of 1 mg/ml concentration. To evaluate the IC50 of compounds binding to GCGR, GCGR membrane fractions were treated with compounds with a serial dilution. The membrane fractions were diluted to 7.5 microgram per well in 70 microliter assay buffer contained 50 mM Tris pH 7.4 and 0.5% (w/v) bovine serum albumin and added into 96 wells plate. The membrane fractions were then mixed with 10 microliter diluted compounds. After 5 minutes pre-incubation, 20 microliter I^125 labeled glucagon (Perkin Elmer) was added into each well at the final concentration of 0.0625 nM. The assay mixtures were incubated at 25° C. for 30 minutes and then transferred onto the Millipore Multiscreen GF/B Plate coated with 0.5% (w/v) Polyethyleneimine. The filter plate was washed with wash buffer contained 50 mM Tris pH 7.4 for 2 times, 300 microliter each time. The residual isotope was detected by Hidex CHAMELEON V micro-beta counter and the IC50 value of each compound binding to GCGR was calculated with non-linear regression.

A further experiment has as its target T1, glucagon receptor (GCGR) (Homo sapiens, UniProt P47871).
T1 construct: expressed in transfected cells; host or cells: CHO-K1
The experiment is described as follows: Glucagon cAMP inhibition assay (Cisbio cAMP Dynamic 2 HTRF). The class given is cell-based. The following applies: GCGR overexpressed CHO-K1 cells or human primary hepatocytes (not specified); glucagon at EC50. As for the experimental part:
Glucagon eAMP Inhibition Assay
Downstream secondary messenger eAMP induced by glucagon was detected by Cisbio cAMP Dynamic 2 kit. Testing compounds were each prepared as a dimethyl sulfoxide (DMSO) solution at the concentration of 10 mM. To evaluate the potency of compounds in inhibiting the cAMP production, glucagon receptor (GCGR) overexpressed CHO-K1 cells or human primary hepatocytes were treated with compounds with a serial dilution. The cells were re-suspended in Hank's Balanced Salt solution (HBSS) contained 0.1% (w/v) bovine serum albumin and 800 nM 3-isobutyl-1-methylxanthine (IBMX) and seeded into low volume, 384 wells white plate. The diluted compounds were then added into the plate for 30 minutes pre-incubation where the final DMSO concentration was 1%. The cells were stimulated with glucagon at the concentration equaled to EC50 (an indicium of the concentration of a drag that gives half-maximal response) for 30 minutes at room temperature. After incubation, lysis buffer contain cAMP antibody and fluorescence acceptor were added into each well for additional 60 minutes incubation. Results were recorded by Molecular Devices SpectraMax Paradigm with the HTRF Detection Cartridges and the IC50 value of each compound in inhibiting the cAMP production was calculated with non-linear regression based on the amount of cAMP production.
(In general: Time-resolved FRET reads energy transfer from a long-lived donor to a nearby acceptor.)

[1] abbreviates: read-out: percentage of inhibition (number in parenthesis in IC50 binding column).

What is called IC50 is the midpoint of a concentration-inhibition curve. Usually inhibition stands for the relative decrease from the control value, in per cent.

Sequence of GCGR (P47871 26-477, species assumed): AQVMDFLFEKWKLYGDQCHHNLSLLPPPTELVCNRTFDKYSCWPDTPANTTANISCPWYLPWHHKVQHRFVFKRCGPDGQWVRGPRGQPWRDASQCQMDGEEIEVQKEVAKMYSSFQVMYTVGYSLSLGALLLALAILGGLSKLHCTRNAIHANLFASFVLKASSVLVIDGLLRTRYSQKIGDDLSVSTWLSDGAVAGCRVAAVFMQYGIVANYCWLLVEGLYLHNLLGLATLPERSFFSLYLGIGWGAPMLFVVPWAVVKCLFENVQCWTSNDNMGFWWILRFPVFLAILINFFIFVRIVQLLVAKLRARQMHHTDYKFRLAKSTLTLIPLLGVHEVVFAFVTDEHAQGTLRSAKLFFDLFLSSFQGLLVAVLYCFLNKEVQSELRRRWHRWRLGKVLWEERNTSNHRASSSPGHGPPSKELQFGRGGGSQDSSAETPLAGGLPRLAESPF
T1 sequence (P47871 26-477, species assumed): as above

Turning to `CCOC(=O)CCNC(=O)c1ccc(NC(c2ccc(-c3noc(-c4ccccc4)n3)cc2)C2CCCCC2)cc1` (centres unmarked) [Compound 2-16, ethyl 3-(4-((cyclohexyl(4-(5-phenyl-1,2,4-oxadiazol-3-yl)phenyl)methyl)amino)benzamido)propanoate], the IC50 at GCGR was 178 nM; at glucagon receptor (GCGR) it was 438 nM.

Consider `CC(C)C(Nc1ccc(C(=O)NCCC(=O)O)cc1)c1ccc(-c2nnc(-c3ccccc3)o2)cc1` (centres unmarked) [Compound 1-1, 3-(4-((2-Methyl-1-(4-(5-phenyl-1,3,4-oxadiazol-2-yl)phenyl)propyl)amino)benzamido)propanoic acid], for which the IC50 at GCGR is 27 nM; against glucagon receptor (GCGR), 4690 nM.

In the case of `CC(C)C(Nc1ccc(C(=O)NCCC(=O)O)cc1)c1ccc(-c2noc(C(C)(C)C)n2)cc1` (centres unmarked) [Compound 2-2, 3-(4-((1-(4-(5-(tert-butyl)-1,2,4-oxadiazol-3-yl)phenyl)-2-methylpropyl)amino)benzamido)propanoic acid], the values for the IC50 on GCGR and at glucagon receptor (GCGR) were 171 nM and 878 nM, respectively.

Turning to `CCCC[C@@H](Nc1ccc(C(=O)NCCC(=O)O)cc1)c1ccc(-c2nc3ccccc3o2)cc1` [Compound 4-10], the IC50 was 150 nM on GCGR and 1500 nM at glucagon receptor (GCGR).

Turning to `CCOC(=O)CCNC(=O)c1ccc(N[C@H](c2ccc(-c3nc4ccccc4o3)cc2)C2CCCC2)cc1` [Compound 4-23, ethyl (S)-3-(4-(((4-(benzo[d]oxazol-2-yl)phenyl)(cyclopentyl)methyl)amino)benzamido)propanoate], the IC50 on GCGR is 308 nM; on glucagon receptor (GCGR) it was 65 nM.

Regarding `CC(C)C(Nc1ccc(-c2noc(-c3ccccc3)n2)cc1)c1ccc(C(=O)NCCC(=O)O)cc1` (centres unmarked) [Compound 3-11, 3-(4-(2-methyl-1-((4-(5-phenyl-1,2,4-oxadiazol-3-yl)phenyl)amino)propyl)benzamido)propanoic acid], the IC50 at GCGR stood at 318 nM; at glucagon receptor (GCGR) it was 717 nM.

For the molecule `CC(C)CC(Nc1ccc(C(=O)NCCC(=O)O)cc1)c1ccc(-c2noc(-c3ccccc3)n2)cc1` (centres unmarked) [Compound 2-10, 3-(4-((3-methyl-1-(4-(5-phenyl-1,2,4-oxadiazol-3-yl)phenyl)butyl)amino)benzamido)propanoic acid], the 50% inhibitory concentration (IC50) came to 124 nM at GCGR and 959 nM against glucagon receptor (GCGR).

With `CCOC(=O)CCNC(=O)c1ccc(N[C@H](c2ccc(-c3nc(-c4ccccc4)no3)cc2)C(C)C)cc1` [Compound 5-3, ethyl (S)-3-(4-((2-methyl-1-(4-(3-phenyl-1,2,4-oxadiazol-5-yl)phenyl)propyl)amino)benzamido)propanoate], the results for the IC50 on GCGR and against glucagon receptor (GCGR) were 1740 nM and 71.4 nM, respectively.

With `CC(C)C[C@H](Nc1ccc(C(=O)NCCC(=O)O)cc1)c1ccc(-c2noc(-c3ccccc3)n2)cc1` [Compound 2-43, (S)-3-(4-((3-methyl-1-(4-(5-phenyl-1,2,4-oxadiazol-3-yl)phenyl)butyl)amino)benzamido)propanoic acid], the IC50 at GCGR was more than 30000 nM; against glucagon receptor (GCGR) it was 391 nM.

Regarding `CCOC(=O)CCNC(=O)c1ccc(NC(c2ccc(-c3nnc(C(F)(F)F)o3)cc2)C(C)CC)cc1` (centres unmarked) [Compound 1-31, ethyl 3-(4-((2-methyl-1-(4-(5-(trifluoromethyl)-1,3,4-oxadiazol-2-yl)phenyl)butyl)amino)benzamido)propanoate], the IC50 at GCGR is more than 30000 nM; at glucagon receptor (GCGR), 88 nM.

In the case of `CCOC(=O)CCNC(=O)c1ccc(N[C@H](c2ccc(-c3noc(C(F)(F)F)n3)cc2)C(C)CC)cc1` (stereo partly drawn) [Compound 2-29, ethyl 3-(4-(((1S)-2-methyl-1-(4-(5-(trifluoromethyl)-1,2,4-oxadiazol-3-yl)phenyl)butyl)amino)benzamido)propanoate], the IC50 is 1820 nM at GCGR and 172 nM against glucagon receptor (GCGR). Moreover, the inhibition at GCGR (setting [1]) turned out to be 18%.

In the case of `CCOC(=O)CCNC(=O)c1ccc(NC(c2ccc(-c3noc(-c4ccc(F)cc4)n3)cc2)C(C)C)cc1` (centres unmarked) [Compound 2-24, ethyl 3-(4-((1-(4-(5-(4-fluorophenyl)-1,2,4-oxadiazol-3-yl)phenyl)-2-methylpropyl)amino)benzamido)propanoate], the IC50 came out at 2680 nM at GCGR and 248 nM against glucagon receptor (GCGR). At GCGR (setting [1]), the inhibition worked out at 35%.

As for `CCCC[C@@H](Nc1ccc(C(=O)NCCC(=O)O)cc1)c1ccc(-c2nnc(-c3ccccn3)o2)cc1` [Compound 1-46], the IC50 on GCGR is 702 nM; against glucagon receptor (GCGR) it was more than 30000 nM.

With `CCOC(=O)CCNC(=O)c1ccc(N[C@@H](c2ccc(-c3nnc(C(F)(F)F)o3)cc2)C(C)C)cc1` [Compound 1-56, ethyl (R)-3-(4-((2-methyl-1-(4-(5-(trifluoromethyl)-1,3,4-oxadiazol-2-yl)phenyl)propyl)amino)benzamido)propanoate], the results for the IC50 at GCGR and against glucagon receptor (GCGR) were more than 30000 nM and 164 nM, respectively.

Consider `CC(C)[C@H](Nc1ccc(C(=O)NCCC(=O)O)cc1)c1ccc(-c2nnc(-c3ccccc3)o2)cc1` [Compound 1-41, (S)-3-(4-(2-methyl-1-(4-(5-phenyl-1,3,4-oxadiazol-2-yl)phenyl)propylamino)benzamido)propanoic acid], for which the IC50 on GCGR was determined as 107 nM; against glucagon receptor (GCGR), 2710 nM.

On to `CCCCC(Nc1ccc(C(=O)NCCC(=O)O)cc1)c1ccc(-c2noc(-c3cccs3)n2)cc1` (centres unmarked) [Compound 2-13, 3-(4-((1-(4-(5-(thiophen-2-yl)-1,2,4-oxadiazol-3-yl)phenyl)pentyl)amino)benzamido)propanoic acid], for which the IC50 on GCGR amounted to 126 nM; against glucagon receptor (GCGR), 312 nM.

Regarding `CCOC(=O)CCNC(=O)c1ccc(N[C@@H](c2ccc(-c3nc4ccccc4o3)cc2)C2CCCC2)cc1` [Compound 4-11, ethyl (R)-3-(4-(((4-(benzo[d]oxazol-2-yl)phenyl)(cyclopentyl)methyl)amino)benzamido)propanoate], the IC50 at GCGR turned out to be 755 nM; on glucagon receptor (GCGR), 237 nM.

For the molecule `CCCC[C@@H](Nc1ccc(C(=O)NCCC(=O)OCC)cc1)c1ccc(-c2nc3ccccc3o2)cc1` [Compound 4-9, ethyl (R)-3-(4-((1-(4-(benzo[d]oxazol-2-yl)phenyl)pentyl)amino)benzamido)propanoate], the figures for the IC50 on GCGR and on glucagon receptor (GCGR) were 602 nM and 186 nM, respectively.

As for `CCCCC(Nc1ccc(C(=O)NCCS(=O)(=O)O)cc1)c1ccc(-c2nnc(-c3ccccc3)o2)cc1` (centres unmarked) [Compound 1-13, 2-(4-((1-(4-(5-phenyl-1,3,4-oxadiazol-2-yl)phenyl)pentyl)amino)benzamido)ethane-1-sulfonic acid], the IC50 at GCGR was 314 nM; at glucagon receptor (GCGR), more than 30000 nM.

`CC(C)C(Nc1ccc(C(=O)NCCC(=O)O)cc1)c1ccc(-c2nnc(-c3ccc(F)cc3)o2)cc1` (centres unmarked) [Compound 1-18, 3-(4-((1-(4-(5-(4-Fluorophenyl)-1,3,4-oxadiazol-2-yl)phenyl)-2-methylpropyl)amino)benzamido)propanoic acid]: the IC50 on GCGR came to 122 nM; against glucagon receptor (GCGR) it was 4350 nM.

As to `CCOC(=O)CCNC(=O)c1ccc(NC(c2ccc(-c3nnc(-c4ccccc4)o3)cc2)C(C)C)cc1` (centres unmarked) [Compound 1-3, Ethyl 3-(4-((2-methyl-1-(4-(5-phenyl-1,3,4-oxadiazol-2-yl)phenyl)propyl)amino)benzamido)propanoate], the IC50 on GCGR came out at 1870 nM; against glucagon receptor (GCGR), 55 nM. Further, on GCGR (compound at 30 μM, read-out: percentage of inhibition (number in parenthesis in IC50 binding column)), the inhibition at 30 µM was 43%.

In the case of `COC(=O)CCNC(=O)c1ccc(NC(c2ccc(-c3noc(-c4ccccc4)n3)cc2)C(C)C)cc1` (centres unmarked) [Compound 2-31, methyl 3-(4-((2-methyl-1-(4-(5-phenyl-1,2,4-oxadiazol-3-yl)phenyl)propyl)amino)benzamido)propanoate], the IC50 on GCGR stood at 204 nM; against glucagon receptor (GCGR) it was 97 nM.

On GCGR, `CCCC[C@H](Nc1ccc(C(=O)NCCC(=O)O)cc1)c1ccc(-c2noc(-c3ccccc3)n2)cc1` [Compound 2-34, (S)-3-(4-((1-(4-(5-phenyl-1,2,4-oxadiazol-3-yl)phenyl)pentyl)amino)benzamido)propanoic acid] showed an IC50 of more than 30000 nM.

As to `CC(C)C(Oc1ccc(-c2nc3ccccc3o2)cc1)c1ccc(C(=O)NCCC(=O)O)cc1` (centres unmarked) [Compound 7-2, 3-(4-(1-(4-(Benzo[d]oxazol-2-yl)phenoxy)-2-methylpropyl)benzamido)propanoic acid], the IC50 on GCGR was found to be 177 nM; against glucagon receptor (GCGR), 292 nM.

For the origin of these results see patent US10882837B2, “Amide compounds and use thereof” (ALPHALA CO., LTD., priority 2017, dated 2021).
